Among the data in ChEMBL document CHEMBL1821717, “Synthesis and biochemical evaluation of triazole/tetrazole-containing sulfonamides against thrombin and related serine proteases” (Bioorg Med Chem Lett, 2011) are Ratio, Ratio Ki and Ki values, retold here.

The target in one assay is T1, Chymase (Homo sapiens) (UniProt P23946).
T1 sequence (whole entry): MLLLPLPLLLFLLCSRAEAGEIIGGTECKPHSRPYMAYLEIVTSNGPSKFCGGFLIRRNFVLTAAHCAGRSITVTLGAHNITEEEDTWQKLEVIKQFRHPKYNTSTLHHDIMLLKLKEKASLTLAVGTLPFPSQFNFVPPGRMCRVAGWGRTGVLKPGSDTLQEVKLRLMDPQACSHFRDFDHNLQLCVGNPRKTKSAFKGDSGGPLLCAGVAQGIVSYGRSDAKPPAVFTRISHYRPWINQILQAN
The experiment in a line: Inhibition of human chymase assessed as residual enzyme activity using chromogenic N-succinyl-Ala-Ala-Pro-Phe p-nitroanilide as substrate at 10 uM pre-incubated for 10 mins by spectrophotometry relative to untreated control. The class given is single protein.

Another assay is filed under the species Homo sapiens. Kind of assay: Inhibition of human tryptase assessed as residual enzyme activity using chromogenic H-D-HHT-Ala-Arg-pNA 2AcOH as substrate at 10 uM pre-incubated for 10 mins measured for 30 mins by spectrophotometry relative to untreated control.
The nature of assay [1]: Ratio of Ki for bovine pancreatic trypsin to Ki for human thrombin.
Assay [2] in a line: Inhibition of bovine pancreatic trypsin using chromogenic N-alpha-bemzoyl-arginine ethyl ester hydrochloride as substrate pre-incubated for 10 mins by spectrophotometry. On the set-up: species or system Bos taurus.

`O=[N+]([O-])c1cccc(/C=C/S(=O)(=O)Nc2cccc(-c3nnn(Cc4cccc(Cl)c4)n3)c2)c1`: the Ratio at Chymase (Homo sapiens) was determined as 0.94; in the assay listed under Homo sapiens, 1.
As usually defined, the Ki is a dissociation constant, usually derived from enzyme kinetics or from competition with a known ligand. The low end stands for higher affinity, the high end for lower affinity. In the case of `O=[N+]([O-])c1cccc(/C=C/S(=O)(=O)Nc2cccc(OCc3cn(Cc4nc5ccccc5s4)nn3)c2)c1`, the Ratio Ki in assay [1] stood at 41. The compound further gave a Ki in assay [2] of 187 µM. Also, the Ratio is 0.95 on Chymase (Homo sapiens) and 1 in the assay filed under Homo sapiens.
For `Nc1cccc(/C=C/S(=O)(=O)Nc2cccc(OCc3cn(Cc4cc5ccccc5s4)nn3)c2)c1`, in that order: 41, 71 µM, 0.88 and 0.99.
For the compound `COc1cccc(/C=C/S(=O)(=O)Nc2cccc(-c3nnn(Cc4cccc(Cl)c4)n3)c2)c1`, the Ratio at Chymase (Homo sapiens) and in the assay listed under Homo sapiens was 1 throughout.
As for `O=S(=O)(/C=C/c1cccc(F)c1)Nc1cccc(OCc2cn(Cc3cc4ccccc4s3)nn2)c1`, the Ratio Ki in assay [1] turned out to be 48. In assay [2], this compound returned a Ki of 119 µM. Besides, the Ratio at Chymase (Homo sapiens) and in the assay filed under Homo sapiens was 0.95 in each case.
As to `O=[N+]([O-])c1cccc(/C=C/S(=O)(=O)Nc2cccc(OCc3cn(Cc4cc5ccccc5s4)nn3)c2)c1`, the Ratio Ki in assay [1] came out at 71. In assay [2], the affinity, expressed as Ki, was 122 µM. For the same compound, the values for the Ratio at Chymase (Homo sapiens) and in the assay listed under Homo sapiens were 0.89 and 1, respectively.
On to `O=S(=O)(/C=C/c1cccc(Cl)c1)Nc1cccc(OCc2cn(Cc3ccccc3)nn2)c1`, for which the Ratio on Chymase (Homo sapiens) is 1; in the assay listed under Homo sapiens it was 0.97.
Taken in the same sequence, the figures for `O=[N+]([O-])c1cccc(/C=C/S(=O)(=O)Nc2cccc(OCc3cn(Cc4cc5ccccc5[nH]4)nn3)c2)c1` were 1 and 0.98.
Take `O=S(=O)(/C=C/c1cccc(Cl)c1)Nc1cccc(OCc2cn(Cc3nc4ccccc4s3)nn2)c1`: the Ratio was 1 at Chymase (Homo sapiens) and 0.98 in the assay listed under Homo sapiens.
In the case of `O=S(=O)(/C=C/c1cccc(C(F)(F)F)c1)Nc1cccc(OCc2cn(Cc3cc4ccccc4s3)nn2)c1`, the Ratio Ki in assay [1] was determined as 64. In assay [2], this compound showed an inhibition constant Ki of 127 µM. Besides, the values for the Ratio at Chymase (Homo sapiens) and in the assay listed under Homo sapiens were 0.99 and 0.97, respectively.
Consider `Cc1cccc(/C=C/S(=O)(=O)Nc2cccc(-c3nnn(Cc4cccc(Cl)c4)n3)c2)c1`, for which the Ratio on Chymase (Homo sapiens) was found to be 0.99; in the assay listed under Homo sapiens it was 1.
Turning to `O=S(=O)(/C=C/c1cccc(Cl)c1)Nc1cccc(OCc2cn(Cc3cccnc3)nn2)c1`, the figures for the Ratio at Chymase (Homo sapiens) and in the assay listed under Homo sapiens were 0.98 and 0.99, respectively.
For `O=S(=O)(/C=C/c1cccc(F)c1)Nc1cccc(OCc2cn(Cc3cccnc3)nn2)c1`, in that order: 0.99 and 1.
Consider `O=S(=O)(/C=C/c1cccc(Cl)c1)Nc1cccc(OCc2cn(Cc3cc4ccccc4s3)nn2)c1`, for which the Ki in assay [2] was 729 µM.
Take `O=S(=O)(/C=C/c1cccc(Br)c1)Nc1cccc(-c2nnn(Cc3cccc(Cl)c3)n2)c1`: the Ratio was 0.95 at Chymase (Homo sapiens) and 1 in the assay filed under Homo sapiens.
Taken in the same sequence, the figures for `O=S(=O)(/C=C/c1cccc(Cl)c1)Nc1cccc(OCc2cn(Cc3ccsc3Br)nn2)c1` were 0.96 and 0.98.
Regarding `O=S(=O)(/C=C/c1cccc(C(F)(F)F)c1)Nc1cccc(-c2nnn(Cc3cccc(Cl)c3)n2)c1`, the Ratio stood at 0.97 on Chymase (Homo sapiens) and 1 in the assay filed under Homo sapiens.
For `O=S(=O)(/C=C/c1cccc(Cl)c1)Nc1cccc(OCc2cn(Cc3ccsc3)nn2)c1`, the Ratio was 0.99 on Chymase (Homo sapiens) and 0.95 in the assay filed under Homo sapiens.
For `O=S(=O)(/C=C/c1cccc(Cl)c1)Nc1cccc(OCc2cn(Cc3cccc(Cl)c3)nn2)c1`, in that order: 0.97 and 0.95.
`O=S(=O)(/C=C/c1cccc(C(F)(F)F)c1)Nc1cccc(OCc2cn(Cc3cccnc3)nn2)c1`: the Ratio was 1 at Chymase (Homo sapiens) and 0.96 in the assay listed under Homo sapiens.
For the compound `CS(=O)(=O)Nc1cccc(-c2nnn(Cc3cccc(Cl)c3)n2)c1`, the figures for the Ratio on Chymase (Homo sapiens) and in the assay listed under Homo sapiens were 0.95 and 0.97, respectively.
For the compound `O=S(=O)(/C=C/c1cccc(Cl)c1)Nc1cccc(OCc2cn(Cc3cc4ccccc4[nH]3)nn2)c1`, the figures for the Ratio on Chymase (Homo sapiens) and in the assay listed under Homo sapiens were 1 and 0.99, respectively.
In the case of `O=[N+]([O-])c1cccc(/C=C/S(=O)(=O)Nc2cccc(OCc3cn(Cc4cccnc4)nn3)c2)c1`, the Ratio at Chymase (Homo sapiens) and in the assay filed under Homo sapiens was 1 each time.
For the compound `O=S(=O)(/C=C/c1cccc(Cl)c1)Nc1cccc(-c2nnn(Cc3cccc(Cl)c3)n2)c1`, the Ratio turned out to be 0.97 on Chymase (Homo sapiens) and 1 in the assay filed under Homo sapiens.
Turning to `O=S(=O)(/C=C/c1cccc(F)c1)Nc1cccc(-c2nnn(Cc3cccc(Cl)c3)n2)c1`, the Ratio turned out to be 0.91 at Chymase (Homo sapiens) and 0.97 in the assay listed under Homo sapiens.
